Data: patent publication US20010056101A1 (priority 1998, published 2001)
Like-named read-outs stand apart in the source and are kept apart here. Each block holds one molecule with its values, some of them ahead of it.

What was measured:
[1] = tested on: hO3 Receptor (Homo sapiens); settings: for Intrinsic Activity: calculated from the Low/High ratio; for Ratio Low/High: ratio of affinity at low-affinity agonist state to high affinity agonist state; for Ki: read-out: Ki (nM) ± S.D
hO44 Receptor = molecular target: T1, hO44 Receptor (Homo sapiens, UniProt P21917); settings: for Ki / Intrinsic Activity / Ratio Low/High: hO44 Receptor; for Ratio Low/High: ratio of affinity at low-affinity agonist state to high affinity agonist state
T1 sequence (P21917 1-419): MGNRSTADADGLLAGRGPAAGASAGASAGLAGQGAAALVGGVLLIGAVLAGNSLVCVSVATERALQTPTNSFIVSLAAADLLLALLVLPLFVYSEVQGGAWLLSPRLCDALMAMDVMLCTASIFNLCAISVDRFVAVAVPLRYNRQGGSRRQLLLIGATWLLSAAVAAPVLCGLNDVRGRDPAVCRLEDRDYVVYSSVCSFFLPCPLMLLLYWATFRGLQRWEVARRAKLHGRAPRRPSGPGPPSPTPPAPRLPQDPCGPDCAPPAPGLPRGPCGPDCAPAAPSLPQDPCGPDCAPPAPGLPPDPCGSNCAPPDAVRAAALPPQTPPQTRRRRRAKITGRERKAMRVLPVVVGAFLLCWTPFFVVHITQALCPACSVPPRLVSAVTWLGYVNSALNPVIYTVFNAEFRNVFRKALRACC

schizophrenia [2] = settings: cited from earlier work
schizophrenia [3] = assay: Clinical antipsychotic efficacy, efficacy tolerance and side effects of dopamine agonists in schizophrenia; assay type: in vivo, human
hD3 (Homo sapiens) = assay: Affinity and intrinsic activity, Table 4; assay type: binding
hD42 = molecular target: T2, hD42 (Homo sapiens, UniProt P21917, DEL265-296); assay: biochemical
T2 sequence (P21917 with tags, fused parts or gaps DEL265-296): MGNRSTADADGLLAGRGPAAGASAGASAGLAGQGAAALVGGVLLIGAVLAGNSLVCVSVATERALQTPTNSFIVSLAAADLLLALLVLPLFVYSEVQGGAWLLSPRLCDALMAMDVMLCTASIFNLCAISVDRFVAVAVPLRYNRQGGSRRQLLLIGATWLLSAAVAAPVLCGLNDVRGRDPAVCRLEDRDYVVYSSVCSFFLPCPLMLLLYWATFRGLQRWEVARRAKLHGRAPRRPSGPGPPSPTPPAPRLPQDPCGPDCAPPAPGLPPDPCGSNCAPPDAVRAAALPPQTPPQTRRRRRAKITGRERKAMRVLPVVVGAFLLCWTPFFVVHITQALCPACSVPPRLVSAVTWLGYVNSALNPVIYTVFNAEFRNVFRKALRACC

[4] = tested on: actively psychotic schizophrenic persons; assay: Clinical test of (−)-3PPP plus haloperidol in actively psychotic schizophrenic persons, BPRS; assay type: in vivo, human; settings: for Change in Total BPRS Score, mean: each arm with haloperidol 1 mg bid
From the text: This combination was designed to produce a lower IA (-)-3PPP, and thereby prolonging its antipsychotic activity. […] This dose of haloperidol may have delivered a measurable antipsychotic effect. […] (Table 5).

hD47 = molecular target: T3, hD47 (Homo sapiens, UniProt P21917)
T3 sequence (P21917 1-419): T1 sequence (P21917 1-419)

hD44 = molecular target: T4, hD44 (Homo sapiens, UniProt P21917); assay: biochemical
T4 sequence (P21917 1-419): T1 sequence (P21917 1-419)

[5] = tested on: L-DOPA-induced dyskinesia in Parkinson's disease; settings: cited from earlier work
D2 receptor = D2 receptor (Homo sapiens, UniProt P14416); settings: for Emax: CHO
tardive dyskinesia = settings: clinical pharmacology, in words; cited from earlier work
schizophrenia [6] = settings: grade symbols, key not given; cited from earlier work
hD21 Receptor = hD21 Receptor (Homo sapiens, UniProt P14416); assay: Affinity and intrinsic activity of partial dopamine agonists, Table 3
[7] = calculated from the Low/High ratio

hO3 Receptor (Homo sapiens), sequence (P14416 whole entry): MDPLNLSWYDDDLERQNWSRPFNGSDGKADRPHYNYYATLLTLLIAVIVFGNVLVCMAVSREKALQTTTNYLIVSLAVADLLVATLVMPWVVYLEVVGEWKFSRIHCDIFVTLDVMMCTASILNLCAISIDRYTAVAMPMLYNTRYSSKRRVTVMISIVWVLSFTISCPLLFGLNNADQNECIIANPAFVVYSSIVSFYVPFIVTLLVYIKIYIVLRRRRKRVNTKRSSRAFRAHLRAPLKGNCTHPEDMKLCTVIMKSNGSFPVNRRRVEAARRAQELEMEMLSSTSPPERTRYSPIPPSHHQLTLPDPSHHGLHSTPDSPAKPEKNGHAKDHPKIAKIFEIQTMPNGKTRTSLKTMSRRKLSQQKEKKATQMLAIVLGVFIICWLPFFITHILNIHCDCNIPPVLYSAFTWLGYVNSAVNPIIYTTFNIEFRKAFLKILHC
D2 receptor, sequence (P14416 whole entry): as above
hD21 Receptor, sequence (P14416 whole entry): as above
hD3 (Homo sapiens), sequence (P14416 whole entry): as above

- Intrinsic Activity [1]: 81%
- Ki (hO44 Receptor; Ki (nM) ± S.D.): 12 ± 6.5 nM
- Intrinsic Activity (hO44 Receptor; [7]): 96%
SMILES: CCCN1CCCC(c2cccc(O)c2)C1 (single isomer, unassigned; (+)) [(+)-3-PPP]

- Intrinsic Activity [1]: 48%
- Ratio Low/High [1]: 10
- Ki [1]: 4.8 ± 2.3 nM
- Intrinsic Activity (hO44 Receptor; [7]): 72%
- Ratio Low/High (hO44 Receptor): 40
- Ki (hO44 Receptor; read-out: Ki (nM) ± S.D.): 7.7 ± 3.4 nM
SMILES: CCCN(CCc1cccs1)C1CCc2c(O)cccc2C1 (single isomer, unassigned; (+)) [(+)-N-0437]

- Intrinsic Activity [1]: 46%
- Emax (hD3 (Homo sapiens)): 46%
- Ki (hD42): 30.9 nM
- Emax (hD42; read-out: Intrinsic Activity %): 73%
- Intrinsic Activity % (hD47): 98%
- Ki (hD47; high affinity agonist state, [3H]-agonist ligand): 14.3 nM
- Ki (hD44): 13.2 nM
- Emax (hD44; read-out: Intrinsic Activity %): 97%
- Emax (D2 receptor; read-out: Intrinsic activity (IA), Example 2): 40%
- Emax (D2 receptor; read-out: Intrinsic activity, tested without haloperidol, FIG. 1): 36%
- Ki (hO44 Receptor; Ki (nM) ± S.D.): 12.2 ± 3.1 nM
- Emax (hO44 Receptor; read-out: Intrinsic Activity, hO44 Receptor, calculated from the Low/High ratio): 83%
SMILES: CCCN1CCCC(c2cccc(O)c2)C1 (single isomer, unassigned; (-)) [(−)-3-PPP, (−)3-(3-hydroxyphenyl)-N-n-propylpiperidine]
- Acute motor side effects (schizophrenia [2]; clinical application in schizophrenia): not accompanied by any acute motor side effect
- Duration of antipsychotic action (schizophrenia [2]; continuous dosing, agonist alone): approximately one week
- Duration of efficacy (schizophrenia [3]; antipsychotic efficacy before tolerance): up to 7 days
- Antipsychotic effect over the trial ([4]; (−)-3PPP 300 mg bid plus haloperidol 1 mg bid, two weeks): extended longer for the entire two week period of the trial without evidence of tolerance
- Change in Total BPRS Score, mean ([4]; Day 3): −1.4
- Change in Total BPRS Score, mean ([4]; Day 7): −3.4
- Change in Total BPRS Score, mean ([4]; Day 11): −3.3
- Change in Total BPRS Score, mean ([4]; Day 14): −4.6
- Effect on L-DOPA-induced dyskinesia [5]: improves L-DOPA-induced dyskinesia in Parkinson's disease
- Change of intrinsic activity with increasing concentrations of haloperidol (D2 receptor; varying concentrations of haloperidol, FIG. 1): linear reduction in the intrinsic activity

- Intrinsic Activity (hO44 Receptor; [7]): 55%
SMILES: CN1CCc2cccc3c2[C@@H]1Cc1ccc(O)c(O)c1-3 [(+)-Apo]

SMILES: CCCN1CCc2cccc3c2[C@@H]1Cc1ccc(O)c(O)c1-3 [(+)-NPA]
- Intrinsic Activity [1]: 61%
- Intrinsic Activity (hO44 Receptor; [7]): 58%
- Ki (hO44 Receptor; read-out: Ki (nM) ± S.D.): 2.3 ± 2 nM

- Intrinsic Activity (hO44 Receptor; [7]): 80%
SMILES: CN1CCc2cccc3c2[C@H]1Cc1ccc(O)c(O)c1-3 [(−)-Apo]

- Intrinsic Activity [1]: 94%
- Ratio Low/High [1]: 145
- Ki [1]: 0.08 ± 0.04 nM
- Intrinsic Activity (hO44 Receptor; [7]): 88%
- Ratio Low/High (hO44 Receptor): 106
- Ki (hO44 Receptor; read-out: Ki (nM) ± S.D.): 1.1 ± 0.7 nM
SMILES: CCCN(CCc1cccs1)[C@H]1CCc2c(O)cccc2C1 [(−)-N-0437]

SMILES: CCCN1CCc2cccc3c2[C@H]1Cc1ccc(O)c(O)c1-3 [(−)-NPA]
- Intrinsic Activity [1]: 100%
- Intrinsic Activity (hO44 Receptor; [7]): 57%
- Ki (hO44 Receptor; read-out: Ki (nM) ± S.D.): 0.6 ± 0.2 nM

SMILES: CN1CCc2cccc3c2[C@H]1Cc1ccc(O)c(O)c1-3 [Apomorphine, apomorphine]
- Effect on tardive dyskinesia (tardive dyskinesia): paradoxically improves tardive dyskinesia, both significantly and substantially

SMILES: CN1C[C@H](CSc2ccccn2)C=C2c3cccc4[nH]cc(c34)C[C@H]21 [CF25-397]
- Antipsychotic (schizophrenia [6]): 0
- Effect on tardive dyskinesia (tardive dyskinesia): modestly improved dyskinetic symptoms in TD

SMILES: CN1C[C@H](CN2CC(=O)NC(=O)C2)C=C2c3cccc4[nH]cc(c34)C[C@H]21 [FCE-23884]
- Intrinsic Activity (hD21 Receptor): 37.0%
- Ki (hD21 Receptor; read-out: Ki (HiAg State), high affinity agonist state): 0.4 nM
- Ki (hD21 Receptor; read-out: Ki (LowAg State), low affinity agonist state): 2.17 nM

SMILES: O=C(CCCN1CCC(O)(c2ccc(Cl)cc2)CC1)c1ccc(F)cc1 [Haloperidol, haloperidol]
- Change in Total BPRS Score, mean ([4]; Day 3): −1.0
- Change in Total BPRS Score, mean ([4]; Day 7): −0.2
- Change in Total BPRS Score, mean ([4]; Day 11): −0.1
- Change in Total BPRS Score, mean ([4]; Day 14): −1.1

SMILES: CCCN1CCc2cccc3c2[C@H]1Cc1ccc(O)c(O)c1-3 [NPA, n-propylnorapomorphine]
- Efficacy tolerance observed after (schizophrenia [3]; antipsychotic efficacy tolerance): 24 h

SMILES: c1cnc(N2CCN(Cc3ccc4c(c3)OCO4)CC2)nc1 [Piribedil (S584), piribedil]
- Antipsychotic (schizophrenia [6]): 0
- Effect on tardive dyskinesia (tardive dyskinesia): modestly improved dyskinetic symptoms in TD
